Laboratory results published in patent US20170045513A1, “METHODS OF DIAGNOSING CELIAC DISEASE USING IP-10” (ImmusanT, Inc., priority 2014, published 2017).
Non-standard residues stand in square brackets, D forms with d. pGlu = O=C1CC[C@@H](C(=O)O)N1

Legend:
Format in all cases: cell-based, human
gluten-reactive T cells [1] = experiment: Overnight IFNγ ELISpot assay with fresh PBMC; conditions: for Percent of maximal response to individual gluten peptides, ELISp: after oral gluten challenge; for IFNγ ELISpot % max Mean: n = 5, blood after oral gluten challenge, individual peptides 5 μM (Peptide 2* of P14, Pepscan: 10 μg/mL (5.45 μM))
Procedure, shortened: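 Read-out is IFNγ spot-forming units per well, counted automatically after overnight culture of fresh PBMC (0.4 million/well) with single peptides (duplicate) or pools (triplicate). Donors: HLA-DQ2.5+ celiac patients on gluten-free diet, bled pre- and day 6 after 3-day oral gluten challenge.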

gluten-reactive T cells [2] = experiment: Cytokine release assays taken together (IFNγ ELISpot, whole blood IFNγ and IP-10, in-tube IFNγ ELISA); conditions: blood collected after oral gluten challenge
Procedure, shortened: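 Whole blood with peptides (P3 0.05-50 μg/mL; P13/P14 0.025-25 μM; […]), 24 h, 37 °C; plasma IFNγ/IP-10 by multiplex beads. Tube assay: 1 mL blood with P3 or CEF, 24 h, plasma IFNγ ELISA; elevated if >7.2 pg/mL above medium tube and SI >1.25. ELISpot overnight on fresh PBMC.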

gluten-reactive T cells [3] = experiment: 96-well plate whole blood cytokine release, IFNγ by MAGPIX multiplex bead assay; conditions: for Percent of maximal response to individual gluten peptides, IFNg: after oral gluten challenge; for IFNγ WB MAGPIX % max Mean: n = 8, blood after oral gluten challenge, individual peptides 5 μM (Peptide 2* of P14, Pepscan: 10 μg/mL (5.45 μM))

Substance	Percent of maximal response to individual gluten peptides, ELISp (gluten-reactive T cells [1]; Subject 3, Max. 18 SFU)	Percent of maximal response to individual gluten peptides, ELISp (gluten-reactive T cells [1]; Subject 4, Max. 36 SFU)	Percent of maximal response to individual gluten peptides, ELISp (gluten-reactive T cells [1]; Subject 6, Max. 16 SFU)	Percent of maximal response to individual gluten peptides, ELISp (gluten-reactive T cells [1]; Subject 8, Max. 17 SFU)	Percent of maximal response to individual gluten peptides, ELISp (gluten-reactive T cells [1]; Subject 10, Max. 11 SFU)	IFNγ ELISpot % max Mean (gluten-reactive T cells [1]) [% max]	activity relative to Peptide 14 in the cytokine release assays (gluten-reactive T cells [2])	Percent of maximal response to individual gluten peptides, IFNg (gluten-reactive T cells [3]; Subject 2, Max. 116 pg/mL)	Percent of maximal response to individual gluten peptides, IFNg (gluten-reactive T cells [3]; Subject 3, Max. 799 pg/mL)	Percent of maximal response to individual gluten peptides, IFNg (gluten-reactive T cells [3]; Subject 4, Max. 136 pg/mL)	Percent of maximal response to individual gluten peptides, IFNg (gluten-reactive T cells [3]; Subject 6, Max. 72 pg/mL)	Percent of maximal response to individual gluten peptides, IFNg (gluten-reactive T cells [3]; Subject 7, Max. 17 pg/mL)	Percent of maximal response to individual gluten peptides, IFNg (gluten-reactive T cells [3]; Subject 8, Max. 47 pg/mL)	Percent of maximal response to individual gluten peptides, IFNg (gluten-reactive T cells [3]; Subject 9, Max. 67 pg/mL)	Percent of maximal response to individual gluten peptides, IFNg (gluten-reactive T cells [3]; Subject 10, Max. 229 pg/mL)	IFNγ WB MAGPIX % max Mean (gluten-reactive T cells [3])	IFNγ ELISpot response relative to Peptide 14 5 μM (gluten-reactive T cells [1]; Peptide 3 10 μg/mL (5.3 μM))	rank of activity among individual gluten peptides (gluten-reactive T cells [2])	whole blood IFNγ release relative to that stimulated by Peptide 14 (gluten-reactive T cells [3]; whole blood incubations after oral gluten challenge)
(pE)QPFPQPELPYPYPQ-amide ([pGlu]QPFPQPELPYPYPQ-NH2; SMILES CC(C)C[C@H](NC(=O)[C@H](CCC(=O)O)NC(=O)[C@@H]1CCCN1C(=O)[C@H](CCC(N)=O)NC(=O)[C@@H]1CCCN1C(=O)[C@H](Cc1ccccc1)NC(=O)[C@@H]1CCCN1C(=O)[C@H](CCC(N)=O)NC(=O)[C@@H]1CCC(=O)N1)C(=O)N1CCC[C@H]1C(=O)N[C@@H](Cc1ccc(O)cc1)C(=O)N1CCC[C@H]1C(=O)N[C@@H](Cc1ccc(O)cc1)C(=O)N1CCC[C@H]1C(=O)N[C@@H](CCC(N)=O)C(N)=O) [Peptide 16]	22 % of max	31 % of max	19 % of max	24 % of max	27 % of max	24	no more than two-thirds as active as Peptide 14	65 % of max	13 % of max	16 % of max	10 % of max	100 % of max	0 % of max	39 % of max	2 % of max	31 % max			
(pE)PQPYPEQPQPFPQQ-amide ([pGlu]PQPYPEQPQPFPQQ-NH2; SMILES NC(=O)CC[C@H](NC(=O)[C@H](CCC(N)=O)NC(=O)[C@@H]1CCCN1C(=O)[C@H](Cc1ccccc1)NC(=O)[C@@H]1CCCN1C(=O)[C@H](CCC(N)=O)NC(=O)[C@@H]1CCCN1C(=O)[C@H](CCC(N)=O)NC(=O)[C@H](CCC(=O)O)NC(=O)[C@@H]1CCCN1C(=O)[C@H](Cc1ccc(O)cc1)NC(=O)[C@@H]1CCCN1C(=O)[C@H](CCC(N)=O)NC(=O)[C@@H]1CCCN1C(=O)[C@@H]1CCC(=O)N1)C(N)=O) [Peptide 8]	44 % of max	64 % of max	31 % of max	18 % of max	27 % of max	37	approximately one-half to one-fifth as active as Peptide 14	35 % of max	24 % of max	39 % of max	6 % of max	0 % of max	42 % of max	5 % of max	45 % of max	25 % max			
(pE)QPFPQPEQPTPIQPEQP-amide ([pGlu]QPFPQPEQPTPIQPEQP-NH2; SMILES CC[C@H](C)[C@H](NC(=O)[C@@H]1CCCN1C(=O)[C@@H](NC(=O)[C@@H]1CCCN1C(=O)[C@H](CCC(N)=O)NC(=O)[C@H](CCC(=O)O)NC(=O)[C@@H]1CCCN1C(=O)[C@H](CCC(N)=O)NC(=O)[C@@H]1CCCN1C(=O)[C@H](Cc1ccccc1)NC(=O)[C@@H]1CCCN1C(=O)[C@H](CCC(N)=O)NC(=O)[C@@H]1CCC(=O)N1)[C@@H](C)O)C(=O)N[C@@H](CCC(N)=O)C(=O)N1CCC[C@H]1C(=O)N[C@@H](CCC(=O)O)C(=O)N[C@@H](CCC(N)=O)C(=O)N1CCC[C@H]1C(N)=O) [Peptide 5]	17 % of max	19 % of max	0 % of max	18 % of max	55 % of max	22	from one-half to one-eighth as active as Peptide 14	39 % of max	5 % of max	13 % of max	1 % of max	6 % of max	0 % of max	0 % of max	27 % of max	11 (11) % max			
(pE)PEQPIPEQPQPYPQQ-amide ([pGlu]PEQPIPEQPQPYPQQ-NH2; SMILES CC[C@H](C)[C@H](NC(=O)[C@@H]1CCCN1C(=O)[C@H](CCC(N)=O)NC(=O)[C@H](CCC(=O)O)NC(=O)[C@@H]1CCCN1C(=O)[C@@H]1CCC(=O)N1)C(=O)N1CCC[C@H]1C(=O)N[C@@H](CCC(=O)O)C(=O)N[C@@H](CCC(N)=O)C(=O)N1CCC[C@H]1C(=O)N[C@@H](CCC(N)=O)C(=O)N1CCC[C@H]1C(=O)N[C@@H](Cc1ccc(O)cc1)C(=O)N1CCC[C@H]1C(=O)N[C@@H](CCC(N)=O)C(=O)N[C@@H](CCC(N)=O)C(N)=O) [Peptide 3]	50 % of max	83 % of max	69 % of max	53 % of max	9 % of max	53		35 % of max	92 % of max	66 % of max	63 % of max	6 % of max	89 % of max	60 % of max	81 % of max	62 % max	only one-half	second most active	one-third less
